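Compound exposure: 48 hours, 5 concentrations, 96-well plates. GI50: concentration for 50% inhibition of growth.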 The source made the active and inactive calls. No stated cut-off is given here; in the data, active = GI50 up to about 1.1 µM and inactive = higher.
Assays:
Test in all cases: NCI anticancer screen, dose series, 48 h
MOLT-4 = system: MOLT-4
M14 = system: M14
SK-MEL-2 = system: SK-MEL-2
TK-10 = system: TK-10
A498 = system: A498
SK-MEL-5 = system: SK-MEL-5
UACC-62 = system: UACC-62
HCC 2998 = system: HCC 2998
NCI-H460 = system: NCI-H460
IGROV-1 = system: IGROV-1
SNB-19 = system: SNB-19
EKVX = system: EKVX
CCRF-CEM = system: CCRF-CEM
KM12 = system: KM12
CAKI-1 = system: CAKI-1
SF-539 = system: SF-539

Structure (SMILES) | GI50 (MOLT-4) | GI50 (M14) | GI50 (SK-MEL-2) | GI50 (TK-10) | GI50 (A498) | GI50 (SK-MEL-5) | GI50 (UACC-62) | GI50 (HCC 2998) | GI50 (NCI-H460) | GI50 (IGROV-1) | GI50 (SNB-19) | GI50 (EKVX) | GI50 (CCRF-CEM) | GI50 (KM12) | GI50 (CAKI-1) | GI50 (SF-539)
CC[C@@H](C(=O)[C@@H](C)[C@@H](O)[C@H](C)CCc1ccc(C)c(O)c1C(=O)O)[C@H]1O[C@](CC)([C@H]2CC[C@](O)(CC)[C@H](C)O2)C[C@@H]1C [LASALOCID A SODIUM] | 1.1 µM (active) | 3.31 µM (inactive) | 1.85 µM (inactive) | 2.79 µM (inactive) | 0.573 µM (active) | 1.66 µM (inactive) | 1.81 µM (inactive) | 1.05 µM (active) | 2.04 µM (inactive) | 2.88 µM (inactive) | 1.3 µM (inactive) | 2.16 µM (inactive) | 0.695 µM (active) | 1.84 µM (inactive) | 1.84 µM (inactive) | 1.15 µM (inactive)
COc1ccc(OC(C)=O)c2c1CCC=CC2=O | 12.2 µM (inactive) | 6.78 µM (inactive) | 17.8 µM (inactive) | 18.3 µM (inactive) | 21.5 µM (inactive) | 15.6 µM (inactive) | 13.4 µM (inactive) | 17.1 µM (inactive) | 19.1 µM (inactive) | 17.7 µM (inactive) | 17.6 µM (inactive) | – | 3.44 µM (inactive) | 3.4 µM (inactive) | – | 16.9 µM (inactive)
COCCCNC(=O)C1C(=O)C(=O)N(CCCOC)C1=O (stereo not drawn) | > 100 µM (inactive) | > 100 µM (inactive) | > 100 µM (inactive) | > 100 µM (inactive) | > 100 µM (inactive) | > 100 µM (inactive) | > 100 µM (inactive) | > 100 µM (inactive) | – | > 100 µM (inactive) | > 100 µM (inactive) | > 100 µM (inactive) | > 100 µM (inactive) | – | > 100 µM (inactive) | > 100 µM (inactive)
COC(=O)Cc1nn2c(nc1=O)sc1ccc3ccccc3c12 | > 100 µM (inactive) | > 100 µM (inactive) | 93.8 µM (inactive) | – | > 100 µM (inactive) | > 100 µM (inactive) | – | > 100 µM (inactive) | 62.7 µM (inactive) | > 100 µM (inactive) | > 100 µM (inactive) | > 100 µM (inactive) | > 100 µM (inactive) | > 100 µM (inactive) | 50.2 µM (inactive) | > 100 µM (inactive)
Cc1ccc([Se][Se]c2ccc(C)cc2)cc1 | 15.1 µM (inactive) | > 10 µM (inactive) | 45.2 µM (inactive) | 67.9 µM (inactive) | > 100 µM (inactive) | 16 µM (inactive) | 9.4 µM (inactive) | 53.8 µM (inactive) | 37.8 µM (inactive) | 38.3 µM (inactive) | 33 µM (inactive) | – | 3.48 µM (inactive) | 50.2 µM (inactive) | 47.4 µM (inactive) | 22.3 µM (inactive)
O=C(CSc1nc(=O)c(-c2ccccc2NC(=O)C(F)(F)F)n[nH]1)NC(=O)Nc1ccccc1 | > 100 µM (inactive) | > 100 µM (inactive) | > 100 µM (inactive) | 45.9 µM (inactive) | – | > 10 µM (inactive) | 50 µM (inactive) | > 100 µM (inactive) | 72.6 µM (inactive) | > 100 µM (inactive) | > 100 µM (inactive) | 55.5 µM (inactive) | 94.8 µM (inactive) | > 100 µM (inactive) | 48.1 µM (inactive) | > 100 µM (inactive)
CC1=C(O)C(=O)C2C(=O)C1C(C)C2c1ccc(C)cc1 (stereo not drawn) | > 100 µM (inactive) | > 100 µM (inactive) | > 100 µM (inactive) | > 100 µM (inactive) | > 100 µM (inactive) | > 100 µM (inactive) | > 100 µM (inactive) | > 100 µM (inactive) | > 100 µM (inactive) | > 100 µM (inactive) | > 100 µM (inactive) | > 100 µM (inactive) | > 100 µM (inactive) | > 100 µM (inactive) | > 100 µM (inactive) | > 100 µM (inactive)
CC(C)C1N2CCCCC2[C@@H]2c3[nH]c4ccccc4c3CCN12 (stereo partly drawn) | > 100 µM (inactive) | > 100 µM (inactive) | > 100 µM (inactive) | – | > 100 µM (inactive) | > 100 µM (inactive) | > 100 µM (inactive) | > 100 µM (inactive) | > 100 µM (inactive) | > 100 µM (inactive) | > 100 µM (inactive) | > 100 µM (inactive) | > 100 µM (inactive) | – | > 100 µM (inactive) | > 100 µM (inactive)
CC(=O)NC(CCCCN(Cc1ccccc1)C(=O)N(C)N=O)C(=O)NCc1ccccc1 (stereo not drawn) | 39.6 µM (inactive) | > 100 µM (inactive) | > 100 µM (inactive) | > 100 µM (inactive) | > 100 µM (inactive) | 47.1 µM (inactive) | > 100 µM (inactive) | > 100 µM (inactive) | 88.7 µM (inactive) | > 100 µM (inactive) | > 100 µM (inactive) | 90.4 µM (inactive) | 59.6 µM (inactive) | > 100 µM (inactive) | > 100 µM (inactive) | > 100 µM (inactive)
C[C@]12Cc3cn[nH]c3C(=O)C1CC[C@@H]1C2CC[C@@]2(C)C1CC[C@]2(C)O (stereo partly drawn) | > 100 µM (inactive) | > 100 µM (inactive) | > 100 µM (inactive) | > 100 µM (inactive) | > 100 µM (inactive) | > 100 µM (inactive) | > 100 µM (inactive) | > 100 µM (inactive) | > 100 µM (inactive) | > 100 µM (inactive) | > 100 µM (inactive) | > 100 µM (inactive) | > 100 µM (inactive) | > 100 µM (inactive) | > 100 µM (inactive) | 84.5 µM (inactive)
COc1cc(Cl)c2c3c(c(C(C)=O)oc13)CCC2 | – | > 100 µM (inactive) | – | > 100 µM (inactive) | > 100 µM (inactive) | > 100 µM (inactive) | > 100 µM (inactive) | > 100 µM (inactive) | > 100 µM (inactive) | > 100 µM (inactive) | > 100 µM (inactive) | > 100 µM (inactive) | > 100 µM (inactive) | – | > 100 µM (inactive) | > 100 µM (inactive)
CC(=O)CCCCO | > 100 µM (inactive) | > 100 µM (inactive) | > 100 µM (inactive) | > 100 µM (inactive) | > 100 µM (inactive) | > 100 µM (inactive) | > 100 µM (inactive) | – | > 100 µM (inactive) | > 100 µM (inactive) | > 100 µM (inactive) | > 100 µM (inactive) | > 100 µM (inactive) | > 100 µM (inactive) | > 100 µM (inactive) | > 100 µM (inactive)
COc1cc(-c2cc(=O)c3c(O)c(OC)c(OC)c(OC)c3o2)ccc1O | 23.1 µM (inactive) | 23.3 µM (inactive) | 17.7 µM (inactive) | 28.2 µM (inactive) | 2.61 µM (inactive) | 15.3 µM (inactive) | 14.8 µM (inactive) | 34.6 µM (inactive) | 16.2 µM (inactive) | 4.84 µM (inactive) | 34 µM (inactive) | > 100 µM (inactive) | 22.4 µM (inactive) | 29.9 µM (inactive) | – | 11.8 µM (inactive)
CCc1cccc(C(C)C)c1NC(=O)CC1Sc2ccccc2NC1=O (stereo not drawn) | 32.4 µM (inactive) | 38.6 µM (inactive) | 39.5 µM (inactive) | > 100 µM (inactive) | 46.8 µM (inactive) | 36.5 µM (inactive) | – | > 100 µM (inactive) | 71.4 µM (inactive) | 37.8 µM (inactive) | 23.2 µM (inactive) | 80.5 µM (inactive) | 47.5 µM (inactive) | 54.8 µM (inactive) | 0.241 µM (active) | > 100 µM (inactive)
O=c1[nH]c(Br)nc2c(N3CCCCC3)c[nH]c12 | 29.5 µM (inactive) | > 100 µM (inactive) | > 100 µM (inactive) | > 100 µM (inactive) | > 100 µM (inactive) | > 100 µM (inactive) | > 100 µM (inactive) | – | > 100 µM (inactive) | > 100 µM (inactive) | > 100 µM (inactive) | > 100 µM (inactive) | > 100 µM (inactive) | > 100 µM (inactive) | > 100 µM (inactive) | > 100 µM (inactive)
O=C1C=CC2(C=C1)C[C@H](NC(=O)C(F)(F)F)C(=O)O2 | 20.4 µM (inactive) | 73.8 µM (inactive) | – | > 100 µM (inactive) | > 100 µM (inactive) | 76.2 µM (inactive) | 18.1 µM (inactive) | 46.9 µM (inactive) | > 100 µM (inactive) | – | > 100 µM (inactive) | 18.2 µM (inactive) | 16.4 µM (inactive) | 73.5 µM (inactive) | 30.5 µM (inactive) | 34.7 µM (inactive)
COc1ccc2c(c1)[n+]([O-])c(-c1nc3ccccc3s1)c(N)[n+]2[O-] | 43.8 µM (inactive) | > 100 µM (inactive) | > 100 µM (inactive) | – | 45.8 µM (inactive) | 38.8 µM (inactive) | – | – | 47.3 µM (inactive) | > 100 µM (inactive) | > 100 µM (inactive) | > 100 µM (inactive) | – | > 100 µM (inactive) | > 100 µM (inactive) | > 100 µM (inactive)
COC1(OC)CC2C=C(S(=O)(=O)c3ccccc3)C1N(Cc1ccccc1)C2=O (stereo not drawn) | 23.2 µM (inactive) | 18.9 µM (inactive) | – | 26.6 µM (inactive) | 22.4 µM (inactive) | 32.3 µM (inactive) | 20.2 µM (inactive) | 60.3 µM (inactive) | 29.3 µM (inactive) | 37.2 µM (inactive) | 39.8 µM (inactive) | 91.4 µM (inactive) | 16.2 µM (inactive) | 24.7 µM (inactive) | – | 21 µM (inactive)

— ChEMBL document CHEMBL1201862, “PubChem BioAssay data set” (2004)
